Measured values as given in patent US8088819B2, “Derivatives of substituted 3-phenyl-1-(phenylthienyl)propan-1-ones and of 3-phenyl-1-(phenylfuranyl) propan-1-ones, preparation and use” (priority 2006, dated 2012).

What was measured:
[1] = biological target: T1, hPPARdelta (Homo sapiens, UniProt Q03181); assay: PPAR activation: Gal4-hPPARδ chimera luciferase transactivation in COS-7 cells, Method 1; format: cell-based; settings: COS-7, 24 h; for Emax: maximum percentage response relative to the reference GW501516, read-out: hPPARdelta % max
T1 construct: expressed in transfected cells; host or cells: COS-7 (monkey kidney fibroblasts)
T1 sequence (Q03181 211-439 limits assumed): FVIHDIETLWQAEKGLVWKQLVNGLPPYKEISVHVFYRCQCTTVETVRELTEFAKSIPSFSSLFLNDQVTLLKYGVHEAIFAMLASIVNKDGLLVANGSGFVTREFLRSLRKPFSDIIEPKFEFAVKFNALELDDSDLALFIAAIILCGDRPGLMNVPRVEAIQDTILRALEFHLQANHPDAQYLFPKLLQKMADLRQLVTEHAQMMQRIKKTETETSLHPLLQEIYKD
Procedure: (§1) The activation of the PPARs was evaluated in vitro on a line of monkey kidney fibroblasts (COS-7) by measuring the transcriptional activity of chimeras constituted of the DNA binding domain of the Gal4 transcription factor of yeast and the ligand binding domain of the various PPARs. The compounds were tested at doses between 10^−5 and […] on the chimeras Gal4-PPARα, γ or δ, and the corresponding EC50 values were determined.
(§2) The COS-7 cells were obtained from the ATCC and were cultivated in DMEM medium supplemented with 10% (v/v) of fetal calf serum, 100 U/ml of penicillin (Gibco, Paisley, UK) and 2 mM of L-glutamine (Gibco, Paisley, UK). The cells were incubated at 37° C. in a humid atmosphere containing 5% CO2.
(§3) The plasmids Gal4(RE)_TkpGL3, pGal4-hPPARα, pGal4-hPPARγ, pGal4-hPPARδ and pGal4-φ are described in the literature (Raspe E et al., 1999). The constructs pGal4-hPPARα, pGal4-hPPARγ and pGal4-hPPARδ were obtained by cloning DNA fragments amplified by PCR corresponding to the DEF domains of the human nuclear receptors PPARα, PPARγ and PPARδ in the pGal4-φ vector.
(§4) The COS-7 cells in suspension were transfected with 150 ng of DNA per well, with a pGal4-PPAR/Gal4(RE)_TkpGL3 ratio of 1/10, in the presence of 10% fetal calf serum. The cells were seeded in 96-well plates (4×10^4 cells/well) and then incubated at 37° C. for 24 hours. Activation with the test compounds is carried out for 24 h at 37° C. in serum-free medium. At the end of the experiment, the cells were lysed and the luciferase activity was determined using the Steady-Lite™ HTS (Perkin Elmer) following the supplier's recommendations.

[2] = biological target: T2, hPPARalpha (Homo sapiens, UniProt Q07869); assay: PPAR activation: Gal4-hPPARα chimera luciferase transactivation in COS-7 cells, Method 1; format: cell-based; settings: COS-7, 24 h; for Emax: maximum percentage response relative to the reference phenofibric acid, read-out: hPPARalpha % max
T2 construct: expressed in transfected cells; host or cells: COS-7 (monkey kidney fibroblasts)
T2 sequence (Q07869 239-466 limits assumed): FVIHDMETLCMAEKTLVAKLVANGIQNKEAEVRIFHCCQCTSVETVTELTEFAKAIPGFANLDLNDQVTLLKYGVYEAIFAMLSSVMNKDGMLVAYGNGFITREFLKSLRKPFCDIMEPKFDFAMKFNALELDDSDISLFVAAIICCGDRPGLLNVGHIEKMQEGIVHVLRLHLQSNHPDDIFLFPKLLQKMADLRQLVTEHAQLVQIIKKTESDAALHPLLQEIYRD
Procedure: as §1, §2, §3, §4

[3] = biological target: T3, hPPARgamma (Homo sapiens, UniProt P37231); assay: PPAR activation: Gal4-hPPARγ chimera luciferase transactivation in COS-7 cells, Method 1; format: cell-based; settings: COS-7, 24 h; for Emax: maximum percentage response relative to the reference rosiglitazone, read-out: hPPARgamma % max
T3 construct: expressed in transfected cells; host or cells: COS-7 (monkey kidney fibroblasts)
T3 sequence (P37231 238-503 limits assumed): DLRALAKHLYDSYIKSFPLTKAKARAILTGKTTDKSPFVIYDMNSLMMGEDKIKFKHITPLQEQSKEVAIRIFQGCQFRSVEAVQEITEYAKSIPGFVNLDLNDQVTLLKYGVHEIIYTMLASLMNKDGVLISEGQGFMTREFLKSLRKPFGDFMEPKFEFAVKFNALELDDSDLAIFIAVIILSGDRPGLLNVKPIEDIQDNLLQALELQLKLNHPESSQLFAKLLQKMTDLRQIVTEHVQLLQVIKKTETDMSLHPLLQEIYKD
Procedure: as §1, §2, §3, §4

SMILES | melting point [°C] | EC50 [1] [nM] | Emax [1] [%] | EC50 [2] [nM] | Emax [2] [%] | EC50 [3] [nM] | Emax [3] [%]
CC(C)(Oc1ccc(CCC(=NO)c2ccc(-c3ccc(C(F)(F)F)cc3)s2)c(Cl)c1Cl)C(=O)O (mixture of isomers) [Compound 49, 2-(2,3-dichloro-4-(3-(hydroxyimino)-3-(5-(4-(trifluoromethyl)-phenyl)thien-2-yl)propyl)phenoxy)-2-methylpropanoic acid] | 135 to 136 | 45 | 93 | 43 | 46 | 660 | 24
CC(C)(Oc1ccc(CCC(=O)c2ccc(-c3ccc(C(F)(F)F)cc3)s2)cc1F)C(=O)O [Compound 23, 2-(2-fluoro-4-(3-oxo-3-(5-(4-(trifluoromethyl)phenyl)thien-2-yl)propyl)phenoxy)-2-methylpropanoic acid] | 150 to 151 | 16 | 95 |  | 48 | 400 | 49
O=C(CCc1ccc(OC(C(=O)O)c2ccccc2)c(Cl)c1Cl)c1ccc(-c2ccc(C(F)(F)F)cc2)s1 (centres unmarked) [Compound 17, 2-(2,3-dichloro-4-(3-oxo-3-(5-(4-(trifluoromethyl)phenyl)thien-2-yl)propyl)phenoxy)-2-phenylacetic acid] | 189 to 191 |  | 0 | 228 | 5 | 190 | 27
O=C(O)COc1ccc(CCC(=O)c2ccc(-c3ccc(C(F)(F)F)cc3)s2)c(Cl)c1Cl [Compound 15, 2-(2,3-dichloro-4-(3-oxo-3-(5-(4-(trifluoromethyl)phenyl)thien-2-yl)propyl)phenoxy)acetic acid] | 217 to 219 | 253 | 88 | 163 | 46 | 5660 | 32
CC(C)(Oc1ccc(CCC(OCc2ccccc2)c2cc(-c3ccc(C(F)(F)F)cc3)cs2)c(Cl)c1Cl)C(=O)O (centres unmarked) [Compound 61, 2-(4-(3-(benzyloxy)-3-(4-(4-(trifluoromethyl)phenyl)thien-2-yl)propyl)-2,3-dichlorophenoxy)-2-methylpropanoic acid] | 58 to 59 | 6 | 101 | 591 | 42 | 30 | 78
CCC(Oc1ccc(CCC(=O)c2ccc(-c3ccc(C(F)(F)F)cc3)s2)c(Cl)c1Cl)C(=O)O (centres unmarked) [Compound 9, 2-(2,3-dichloro-4-(3-oxo-3-(5-(4-(trifluoromethyl)phenyl)thien-2-yl)propyl)phenoxy)butanoic acid] | 169 to 171 | 19 | 84 | 6 | 54 | 280 | 41
CCC(Oc1ccc(CCC(=O)c2ccc(-c3ccc(C(F)(F)F)cc3)s2)cc1)C(=O)O (centres unmarked) [Compound 65, 2-(4-(3-oxo-3-(5-(4-(trifluoromethyl)phenyl)thien-2-yl)propyl)-phenoxy)butanoic acid] | 116 to 117 | 109 | 79 | 4 | 52 |  | 73
CC(C)(Oc1ccc(CCC(=O)c2ccc(-c3ccc(C(F)(F)F)cc3)s2)c(Cl)c1)C(=O)O [Compound 21, 2-(3-chloro-4-(3-oxo-3-(5-(4-(trifluoromethyl)phenyl)thien-2-yl)-propyl)phenoxy)-2-methylpropanoic acid] | 104 to 106 | 8 | 97 | 17 | 50 | 80 | 63
O=C(O)COc1ccc(CCC(=O)c2ccc(-c3ccc(C(F)(F)F)cc3)s2)cc1Br [Compound 34, 2-(2-bromo-4-(3-oxo-3-(5-(4-(trifluoromethyl)phenyl)thien-2-yl)propyl)phenoxy)acetic acid] | 180 to 182 | 114 | 95 | 60 | 61 |  | 37
CCC(Oc1ccc(CCC(=O)c2ccc(-c3ccc(C(F)(F)F)cc3)s2)cc1F)C(=O)O (centres unmarked) [Compound 29, 2-(2-fluoro-4-(3-oxo-3-(5-(4-(trifluoromethyl)phenyl)thien-2-yl)-propyl)phenoxy)butanoic acid] | 119 to 120 | 37 | 88 | 2 | 56 | 1270 | 65
CCC(Oc1ccc(CCC(=O)c2ccc(-c3ccc(C(F)(F)F)cc3)s2)cc1Br)C(=O)O (centres unmarked) [Compound 32, 2-(2-bromo-4-(3-oxo-3-(5-(4-(trifluoromethyl)phenyl)thien-2-yl)propyl)phenoxy)butanoic acid] | 126 to 128 | 36 | 75 | 8 | 52 | 210 | 67
CC(C)(Oc1ccc(CCC(=O)c2ccc(-c3ccc(C(F)(F)F)cc3)s2)cc1Cl)C(=O)O [Compound 19, 2-(2-chloro-4-(3-oxo-3-(5-(4-(trifluoromethyl)phenyl)thien-2-yl)-propyl)phenoxy)-2-methylpropanoic acid] | 136 to 137 | 15 | 85 | 1 | 47 | 180 | 27
CC(C)(CCCOc1ccc(CCC(=O)c2ccc(-c3ccc(C(F)(F)F)cc3)s2)c(Cl)c1Cl)C(=O)O [Compound 13, 5-(2,3-dichloro-4-(3-oxo-3-(5-(4-(trifluoromethyl)phenyl)thien-2-yl)propyl)phenoxy)-2,2-dimethylpentanoic acid] | 167 to 169 |  | 1 | 977 | 20 | 490 | 58
